Like-named read-outs stand apart in the source and are kept apart here.
What was measured:
[1] = system: L. donovani intracellular amastigotes in B10R cells; experiment: UCSD L. donovani infection assay (Assay Conditions D); type: cell-based; details: B10R cells; for L. donovani amastigotes EC75 (B10R cells): footnote d; for EC50: Leishmania donovani, values marked d, read-out: L. donovani amastigotes EC50 (B10R cells)
Outline: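 B10R cells (300/well) infected with stationary-phase L. donovani WT promastigotes at 20 parasites/cell in DMEM high-glucose, 5% FBS, with compounds 72 h at 37° C., 5% CO2. Formaldehyde-fixed, DAPI-stained, imaged by high-content microscopy; 10-point 2-fold dilutions (screen at 10 μM) gave EC50 and host CC50.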

[2] = system: L. braziliensis (strain BA788) in J774 cells; experiment: J774 luciferase infection assay (Assay Conditions E); type: cell-based, Leishmania braziliensis
Experimental: Assay Conditions E: J774 cells (ATCC J774A.1 were grown in DMEM supplemented with 10% Fetal Bovine Serum (FBS) and 1% Penicillin-Streptomycin at 37° C. in 5% CO2. Leishmania parasites expressing luciferase and GFP were grown as described in Front. Cell. Infect. Microbiol (2019) 9:237. J774 cells were seeded in microwell plates at 3×10^5 cells/mL density. Cells were washed with PBS and incubated with complete DMEM medium containing stationary phase Leishmania promastigotes (L. major: strain Friedlin; L. braziliensis, strain BA788) at a 1:10 parasite-cell ratio for 24 h. Cells were washed with PBS. Cells and compounds were incubated for 48 h at 37° C. and 5% C02. Compounds were tested in 8-point 2-fold serial dilution in 4 technical replicates, and 2 biological replicates. After 48 h, OneTiterGlo (Promega) (100 μl) was added to each well. Plates were incubated for 15 min and bioluminescence was measured using a plate reader (Molecular Devices). Effective concentration inducing 75% activity (EC75) was calculated using GraphPad Prism Software (version 9.0).

[3] = UCSD infection assay, host cell cytotoxicity (CC50); type: cell-based; details: mouse, B10R host cells infected with L. donovani
Experimental: (§1) Assay Conditions D: B10R cells (CVCL_0155) were seeded at 300 cells/well, and L. donovani WT promastigotes in stationary phase (7th day after passage) were added at 6,000 parasites/well (ratio of 20 parasites/cell). Both cells and parasites were seeded in DMEM High-Glucose medium (Gibco, cat. no. 11995065) containing 5% Fetal Bovine Serum (Sigma-Aldrich, cat. no. F2442) and 1% Penicillin-Streptomycin (Gibco, cat. no. 15140122). Cells and parasites were incubated in the presence of the compounds for 72 h at 37° C. and 5% C02. Plates were then fixed with 4% formaldehyde solution for at least 1 h, then washed with 1×PBS and stained with 5 μg/mL DAPI. Plates were read using an ImageXpress microscope (Molecular Devices) and analyzed by MetaXpress software (Molecular Devices) using a custom module optimized for this assay. […] Compounds were tested in a 10-point 2-fold serial dilution in 3 technical replicates, and 2 biological replicates. After 72 h, plates were fixed and stained with DAPI as described above. Images were acquired on an ImageXpress microscope, and analyzed using the MetaXpress custom module.
as §1, with “Compounds were obtained as 0.2 μmoles of dried film for primary single point screening. Each compound was diluted in DMSO to 10 μM final testing concentration. These compounds were tested in 2 biological replicates. The compounds were pre-spotted onto 384-well assay plates in single concentration.” for “Assay Conditions D:”, “CO2.” for “C02.”, “module. The DRCs were plotted, half-effective concentration (EC50) and half-cytotoxic concentration (CC50) were calculated using GraphPad Prism Software, version 6.05 (GraphPad Software, San Diego, CA).” for “module.”

[4] = GSK inMac assay, host cell toxicity readout (LD MAC); type: cell-based, human; details: human
Outline: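 Intramacrophage L. donovani assay in THP-1 macrophages; host toxicity taken from host cell number per well, giving MAC EC50. Run alongside amastigote-per-cell and infected-cell readouts in the same wells.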

[5] = system: L. donovani intracellular amastigotes infecting THP-1 macrophages; experiment: GSK intramacrophage L. donovani assay (LD AMMAC, inMac; Assay Conditions C); type: cell-based; details: Leishmania donovani
Outline: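 L. donovani amastigotes within THP-1 macrophages; EC50 based on average intracellular amastigotes per infected cell (AMMAC). Infected-cell percentage (INFCELL) and host-cell number (MAC) also read, the latter as toxicity output.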

[6] = footnote c, read-out: THP-1 Host Cell CC50
[7] = THP-1 cells, values marked c, read-out: L. donovani amastigotes EC50 (THP-1 cells)
[8] = values marked c: THP-1 cells, read-out: L. donovani amastigotes EC50 (μM, THP-1 or B10R cells)

| SMILES | L. donovani amastigotes EC75 (μM, B10R cells) [1] [µM] | L. braziliensis amastigotes EC75 (μM, J774 cells) [2] [µM] | CC50 at 72 h ([3]; footnote d) [µM] | L. donovani amastigotes EC75 (B10R cells) [1] [µM] | CC50 [4, 6] [µM] | also measured |
| --- | --- | --- | --- | --- | --- | --- |
| CC(C)Cc1n[nH]c2c1C(c1ccc(Br)cc1F)N(c1ccc(F)nc1)C2=O (stereo not shown) [BUCMD00649] | >10 | >10 |  |  |  |  |
| CC(C)Cc1n[nH]c2c1C(c1ccc(F)cc1Br)N(c1ccc(F)nc1)C2=O (stereo not shown) [BUCMD00650] | >10 | 9.0 |  |  |  |  |
| Cc1ccccc1C1c2c(CC(C)C)n[nH]c2C(=O)N1c1ccc(F)nc1 (stereo not shown) [BUCMD00651] | 6.3 | >10 |  |  |  |  |
| Cc1cc(F)ccc1C1c2c(CC(C)C)n[nH]c2C(=O)N1c1cnn(C(C)C)c1 (stereo not shown) [BUCMD00673] | >10 | >10 |  |  |  |  |
| COc1ccc(N2C(=O)c3[nH]nc(CC(C)C)c3C2c2ccc(F)cc2Cl)cn1 (stereo not shown) [BUCMD00684] | >10 | 10.0 |  |  |  |  |
| COc1ccc(N2C(=O)c3[nH]nc(CC(C)C)c3C2c2ccc(Cl)cc2F)cn1 (stereo not shown) [BUCMD00685] | 1.7 | >10 |  |  |  |  |
| COc1ccc(N2C(=O)c3[nH]nc(CC(C)C)c3C2c2ccccc2C)cn1 (stereo not shown) [BUCMD00687] | >10 | >10 |  |  |  |  |
| COc1ccc(N2C(=O)c3[nH]nc(CC(C)C)c3C2c2ccc(F)cc2F)cn1 (stereo not shown) [BUCMD00688] | 3.3 | >10 |  |  |  |  |
| COc1ccc(N2C(=O)c3[nH]nc(CC(C)C)c3C2c2ccccc2C(F)(F)F)cn1 (stereo not shown) [BUCMD00689] | >10 | >10 |  |  |  |  |
| COc1ccc(N2C(=O)c3[nH]nc(CC(C)C)c3C2c2sccc2C)cn1 (stereo not shown) [BUCMD00690] | 9.7 | >10 |  |  |  |  |
| COc1ccc(N2C(=O)c3[nH]nc(CC(C)C)c3C2c2ccccc2F)cn1 (stereo not shown) [BUCMD00691] | 4.9 | >10 |  |  |  |  |
| COc1ccc(N2C(=O)c3[nH]nc(CC(C)C)c3C2c2ccc(F)c(F)c2)cn1 (stereo not shown) [BUCMD00692] | >10 | >10 |  |  |  |  |
| C#CCCOc1ccc(C2c3c(CC(C)C)n[nH]c3C(=O)N2c2ccc(OC)cc2)c(Cl)c1 (stereo not shown) [BUCMD00728] | >10 | >10 |  |  |  |  |
| COc1ncc(N2C(=O)c3[nH]nc(CC(C)C)c3C2c2ccc(F)cc2Cl)cc1F (stereo not shown) [BUCMD00730] |  |  | 10 | 0.6 |  |  |
| C#CCCCCn1nc(CC(C)C)c2c1C(=O)N(c1ccc(OC)cc1)C2c1ccc(F)cc1 (stereo not shown) [BUCMD00741] | >10 |  |  |  |  | CC50 at 72 h ([3]; host B10R cells): 10 µM |
| COc1ccc(N2C(=O)c3[nH]nc(CC(C)C)c3[C@@H]2c2cccc(C(F)(F)F)c2)cn1 [BUCMD00805] |  |  | 6.31 | 1.6 | 25.1 | EC50 [5, 7]: 5 µM |

| SMILES | L. donovani amastigotes EC75 (μM, B10R cells) [1] [µM] | L. braziliensis amastigotes EC75 (μM, J774 cells) [2] [µM] | CC50 at 72 h ([3]; footnote d) [µM] | L. donovani amastigotes EC75 (B10R cells) [1] [µM] | CC50 [4, 6] [µM] | also measured |
| --- | --- | --- | --- | --- | --- | --- |
| CC(C)Cc1n[nH]c2c1C(c1ccccc1Cl)N(c1ccc(N(C)C)cc1)C2=O (stereo not shown) [CMLD010920] |  |  | 6.31 | 0.3 | 7.3 | EC50 [1]: 0.3 µM |
| COc1ccc(N2C(=O)c3[nH]nc(CC(C)C)c3[C@H]2c2ccccc2Br)cn1 [CMLD010977] | 1.0 |  |  |  |  | CC50 at 72 h ([3]; host B10R cells): 15.8 µM; CC50 ([4]; host THP-1 cells): 25.1 µM; EC50 [5, 8]: 2 µM |
| CC(C)Cc1n[nH]c2c1C(c1ccc(F)cc1)N(c1ccc(N(C)C)cc1)C2=O (stereo not shown) [CMLD011039] |  |  | 6.31 | 0.3 | 39.8 | EC50 [5, 7]: 1 µM |
| COc1ccc(N2C(=O)c3[nH]nc(CC(C)C)c3C2c2ccc(F)cn2)cc1 (stereo not shown) [CMLD011100] |  |  |  | 4.4 | > 50 | EC50 [5, 7]: 10 µM; L. braziliensis amastigotes EC75 (J774 cells) ([2]; footnote e): >10 µM |
| CC(C)Cc1n[nH]c2c1C(c1ccc(F)cc1)N(c1ccc3c(c1)OCCO3)C2=O (stereo not shown) [CMLD011101] |  |  | 15.8 | 1.2 | 25.1 | EC50 [5, 7]: 3.2 µM |
| COc1ccc(N2C(=O)c3[nH]nc(CC(C)C)c3C2c2ccc(C)s2)cc1 (stereo not shown) [CMLD011123] | 2.5 |  |  |  |  | CC50 at 72 h ([3]; host B10R cells): 15.8 µM; CC50 ([4]; host THP-1 cells): 20 µM; EC50 [5, 8]: 5 µM |
| CC(C)Cc1n[nH]c2c1C(c1cccc(C(F)(F)F)c1)N(c1ccc3c(c1)OCO3)C2=O (stereo not shown) [CMLD011139] | >10 |  |  |  |  | CC50 at 72 h ([3]; host B10R cells): 12.6 µM; CC50 ([4]; host THP-1 cells): 20 µM; EC50 [5, 8]: 3.2 µM |
| CC(C)Cc1n[nH]c2c1C(c1ccccc1Br)N(c1ccc3c(c1)OCC(=O)N3)C2=O (stereo not shown) [CMLD011497] | 0.9 |  |  |  |  | CC50 at 72 h ([3]; host B10R cells): 6.31 µM; CC50 ([4]; host THP-1 cells): 20 µM; EC50 [5, 8]: 2 µM |
| COc1ccccc1C1c2c(CC(C)C)n[nH]c2C(=O)N1c1ccc(Br)cc1 (stereo not shown) [CMLD011549] |  |  | 1 | 0.3 | 1.1 | EC50 [1]: 0.2 µM |
| CC(C)Cc1n[nH]c2c1C(c1ccccc1Br)N(c1ccc(Br)cc1)C2=O (stereo not shown) [CMLD011551] |  |  | 6.31 | 0.5 | 5 | EC50 [1]: 0.4 µM |
| CC(C)Cc1n[nH]c2c1C(c1c(Cl)cccc1Cl)N(c1ccc(N(C)C)cc1)C2=O (stereo not shown) [CMLD011553] | 3.0 |  |  |  |  | CC50 at 72 h ([3]; host B10R cells): 5.01 µM; CC50 ([4]; host THP-1 cells): 20 µM; EC50 [5, 8]: 4 µM |
| COc1ccc(N2C(=O)c3[nH]nc(CC(C)C)c3C2c2ccccc2OC)cc1F (stereo not shown) [CMLD011566] |  |  | 0.316 | 0.4 | 0.3 | EC50 [1]: 0.4 µM |
| COc1ccc(N2C(=O)c3[nH]nc(CC(C)C)c3C2c2ccccc2OC)cn1 (stereo not shown) [CMLD011567] |  |  | 20 | 1.2 | > 20 | EC50 [1]: 1.1 µM |
| COc1ccc(N2C(=O)c3[nH]nc(CC(C)C)c3C2c2ccccc2Br)cc1F (stereo not shown) [CMLD012217] |  |  | 3.98 | 0.5 | 3 | EC50 [1]: 0.4 µM |
| COc1ccc(N2C(=O)c3[nH]nc(CC(C)C)c3[C@H]2c2ccc(F)cc2)cc1 [CMLD013629] | >10 |  |  |  |  | CC50 at 72 h ([3]; host B10R cells): 20 µM; CC50 ([4]; host THP-1 cells): 25.1 µM; EC50 [5, 8]: 10 µM |

Source: patent US20230381142A1, “ANTILEISHMANIAL COMPOUNDS, COMPOSITIONS AND USE THEREOF” (TRUSTEES OF BOSTON UNIVERSITY, priority 2022, published 2023)
